Assay in all cases: In vitro antibacterial MIC, broth microdilution
(Dilution methods test growth across graded concentrations, often in twofold steps.)

For assay [1], the system named is X. maltophilia ATCC 13637. It counts as cell-based. To be noted: Mueller Hinton broth, 20 h at 35° C. How it is done: (§1) The compounds of the invention were evaluated against various bacterial strains by determining the minimum inhibitory concentration (MIC) of each compound with respect to each strain. The MIC is defined as the lowest concentration of drug which prevents the growth of the bacteria. A variety of different Gram-negative and Gram-positive bacterial species and strains can be selected for assay purposes depending on the particular desired application. The susceptibility assay is performed in Mueller Hinton broth using a microdilution technique in a final test volume of 100 μl using 96-well microtiter plates. Test compounds are prepared in Mueller-Hinton broth at a concentration equivalent to 2-fold the desired final concentration. The bacterial inoculi are prepared as follow. Bacterial strains are grown overnight at 35° C. on Tryptic Soy agar (TSA). For each strain, one isolated colony is used to inoculate a volume of 8 ml of Mueller Hinton broth and these cultures are incubated overnight (20 h) at 35° C. in a shaking incubator. Culture are then diluted 1:10 and allow to grow for an additional one hour at 35° C. in a shaking incubator. The inoculum used for the susceptibility assay is prepared by diluting the early log-phase (1 h) culture 1:2000 with fresh Mueller Hinton broth. A 50 μl volume of the inoculi, and a 50 μl solution of the test compound prepared as described above is added to each well. This procedure results in an inoculum of approximately 5×10^5 CFU/ml. After incubation for 20 h at 35° C., the absorbance of the cultures in each is read, e.g., using the ThermoMax microtiter plate reader (Molecular Devices) at 650 nm. The MIC is defined as the lowest concentration of compounds which prevents growth of the microorganism and therefore results in a final absorbance equal to that of the drug-free (e.g., test compound free) control.

A further assay has as its system E. faecalis ATCC 29212. It is filed as cell-based. To be noted: Mueller Hinton broth, 20 h at 35° C. How it is done:
as §1

The subject of assay [2] is S. epidermidis ATCC 31432. It is filed as cell-based. To be noted: Mueller Hinton broth, 20 h at 35° C. As to the method: as §1
The test system of a further assay is E. coli ATCC 25922. It counts as cell-based. To be noted: Mueller Hinton broth, 20 h at 35° C. As to the method: as §1
For a further assay, the system named is S. aureus ATCC 29213. It is filed as cell-based. To be noted: Mueller Hinton broth, 20 h at 35° C. As to the method:
as §1

A further assay has as its system P. aeruginosa UPA res. It is filed as cell-based, Pseudomonas aeruginosa. To be noted: Mueller Hinton broth, 20 h at 35° C. How it is done:
as §1

In the next assay the test system is P. aeruginosa ATCC 27853. It counts as cell-based, Pseudomonas aeruginosa. To be noted: Mueller Hinton broth, 20 h at 35° C. As to the method:
as §1

In the next assay the test system is P. aeruginosa 799/61. It counts as cell-based, Pseudomonas aeruginosa. To be noted: P. aeruginosa 799/61 (sensitive strain); Mueller Hinton broth, 20 h at 35° C. How it is done:
as §1

With pacidamycin-5N, the “Minimal Inhibitory Concentration, MIC” value (in assay [1]; with E. faecalis ATCC 29212; in assay [2]; with E. coli ATCC 25922; in the assay with S. aureus ATCC 29213; with P. aeruginosa UPA res.) was > 500 µg/mL throughout. Moreover, the “Minimal Inhibitory Concentration, MIC” value is > 500 µg/mL with P. aeruginosa ATCC 27853 and 64 µg/mL with P. aeruginosa 799/61.

In the case of pacidamycin-4N, the “Minimal Inhibitory Concentration, MIC” value in the assay with P. aeruginosa UPA res. was > 256 µg/mL; in the assay on P. aeruginosa ATCC 27853, 64 µg/mL; with P. aeruginosa 799/61, 4 µg/mL.

In the case of `C[C@H](NC(=O)N[C@@H](Cc1c[nH]c2ccccc12)C(=O)O)C(=O)N[C@H](C(=O)N/C=C1/C[C@@H](O)[C@H](n2ccc(=O)[nH]c2=O)O1)[C@H](C)N(C)C(=O)[C@@H](N)Cc1cccc(O)c1` [Pacidamycin-4, pacidamycin-4, reference compound], the “Minimal Inhibitory Concentration, MIC” value with E. faecalis ATCC 29212 is 64 µg/mL; in assay [2] it was > 250 µg/mL; in the assay with E. coli ATCC 25922 it was 64 µg/mL; with S. aureus ATCC 29213 it was > 250 µg/mL; with P. aeruginosa UPA res. it was > 250 µg/mL; in the assay on P. aeruginosa ATCC 27853, 16 µg/mL. Further, the “Minimal Inhibitory Concentration, MIC” value in the assay on P. aeruginosa 799/61 was determined as 2 µg/mL.

On to `C[C@H](N)C(=O)N[C@@H](Cc1cccc(O)c1)C(=O)N(C)[C@@H](C)[C@H](NC(=O)[C@H](C)NC(=O)N[C@@H](Cc1c[nH]c2ccccc12)C(=O)O)C(=O)N/C=C1/C[C@@H](O)[C@H](n2ccc(=O)[nH]c2=O)O1` [Pacidamycin-1, pacidamycin-1, reference compound], for which the “Minimal Inhibitory Concentration, MIC” value is > 250 µg/mL in assay [1]; 64 µg/mL with E. faecalis ATCC 29212; > 250 µg/mL in assay [2]; > 250 µg/mL in the assay on E. coli ATCC 25922; > 250 µg/mL with S. aureus ATCC 29213; > 250 µg/mL in the assay on P. aeruginosa UPA res.. Besides, the “Minimal Inhibitory Concentration, MIC” value was determined as 4 µg/mL in the assay on P. aeruginosa ATCC 27853 and 1 µg/mL in the assay with P. aeruginosa 799/61.

As to pacidamycin-5T, the “Minimal Inhibitory Concentration, MIC” value (in assay [1]; with E. faecalis ATCC 29212; in assay [2]; with E. coli ATCC 25922; in the assay with S. aureus ATCC 29213; with P. aeruginosa UPA res.) was > 500 µg/mL each time. The “Minimal Inhibitory Concentration, MIC” value in the assay on P. aeruginosa ATCC 27853 was > 500 µg/mL; in the assay on P. aeruginosa 799/61, 125 µg/mL.

As for `C[C@H](N)C(=O)N(C)[C@@H](C)[C@H](NC(=O)[C@H](C)NC(=O)N[C@@H](Cc1c[nH]c2ccccc12)C(=O)O)C(=O)N/C=C1/C[C@@H](O)[C@H](n2ccc(=O)[nH]c2=O)O1` [Pacidamycin-D, pacidamycin-D], the “Minimal Inhibitory Concentration, MIC” value with P. aeruginosa UPA res. is > 256 µg/mL; in the assay on P. aeruginosa ATCC 27853 it was 16 µg/mL; with P. aeruginosa 799/61, 4 µg/mL.

Source of the values: US6228842A, “Pacidamycins produced by Streptomyces coeruleorubidus” (Microcide Pharmaceuticals, Inc., priority 1998, dated 2001).
